{"source": "patent US7943159B1", "about": "“Female sex pheromone of the dogwood borer (DWB), Synanthedon scitula, and attraction inhibitor (antagonist)” (The United States of America as represented by the …, priority 2006, dated 2011)", "key": {"adult male DWB antenna": {"tested_on": "adult male DWB antenna", "assay": "Coupled GC-EAD (electroantennographic detection) of synthetic octadecadienyl acetates", "design": "species or system Synanthedon scitula", "settings": "for EAD activity in 10 ng of loading: 10 ng loading, male DWB antenna, footnote: relative to E,Z-2,13-octadecadienyl acetate; for EAD activity / electroantennogram response: male DWB antennae, synthetic standards", "text": "Identification of peaks: 1, ZZ 3,13-ODDA; 2, EZ 2,13-ODDA; and 3, ZE 3,13-ODDA. Electrophysiological. Recordings and Mass Spectrometry: The coupled gas chromatographic-electroantennographic detection (GC-EAD) system used was as previously described (Zhang, A., and S. Polavarapu, J. Chem. Ecol., 29: 2153-2164 (2003); Zhang, A., and S. Polavarapu, J. Chem. Ecol., 30: 1531-1545 (2004); Zhang, A., et al., J. Chem. Ecol., 23: 231-245 (1997)). A Hewlett Packard (HP) 6890 gas chromatograph equipped with a 60 m×0.25-mm i.d., 0.25-mm film-thickness DB-[…] capillary column (J&W Scientific Inc., Folsom, Calif., 120° C. for 2 min, then programmed to 250° C. at 10° C./min and held for 10 min) or a 60 m×0.25-mm i.d., 0.25-mm film-thickness DB-5 capillary column (J&W Scientific Inc., 100° C. for 2 min, then programmed to 250° C. at 15° C./min and held for 10 min) in the splitless mode with hydrogen as carrier (1.4 ml/min) was used for GC-EAD analysis. Electronic impact (EI) gas chromatography-mass spectrometry (GC-MS) was conducted on a Hewlett-Packard 6890 GC coupled to a HP 5973 Mass Selective Detector using an identical DB-[…] capillary column (120° C. for 2 min, then programmed to 230° C. at 15° C./min and held for 25 min for regular analysis, but with helium as carrier gas. A 70 eV electron beam was employed for sample ionization."}, "[1]": {"tested_on": "male DWB (Synanthedon scitula)", "assay": "Field trapping tests with lure-baited sticky traps in apple orchards", "format": "in vivo", "experimental": "Field Trapping Tests: Red natural rubber septa (5 mm, Wheaton, N.J.) loaded with the desired rates of Z,Z-3,13-ODDA and the blends in […] of hexane solution were used for field deployment. The same amount of solvent (hexane) was loaded on the septum for the blank control. After loading, the solvent was allowed to evaporate in a fume hood for 30 min. Lures were then wrapped in aluminum foil, stored in 20 ml plastic vials, and shipped by express carrier on the same day. Upon arrival, the lures were kept in a freezer at −10° C. until deployed. All field tests were conducted in commercial apple fields in WV, VA, and NC using Pherocon 1C or Delta sticky traps (Trécé, Salinas, Calif.). Traps were placed in trees at ˜1.2 m above the ground (Riedi, Fla., et al., Cana. Entomol., 117: 1367-1377 (1985)). At each location, experimental lures were randomized within each of three to five rows (depending on the number of replicates per test) and separated by at least one buffer row, and traps were spaced at a minimum of ˜25 m intervals within a row. Traps were rotated among positions within each row at weekly intervals for the duration of each test. The number of dogwood borer, peachtree borer, lilac borer, and other male Sesiidae moths captured were recorded weekly. In the first comparison trial, the following lures were deployed: the single component (100% Z,Z-3,13 ODDA); the binary blend (Z,Z-3,13-ODDA:E,Z-2,13-ODDA=94:6); a second two-component blend (Z,Z-3,13-ODDA:Z,E-3,13-ODDA=94:6, based on the molar amount of the Z,Z-3,13-octadecadienyl acetate in the composition); the trinary blend (Z,Z-3,13-ODDA:E,Z-2,13-ODDA:Z,E-3,13-ODDA=88:6:6); and control. Next, to evaluate the attractive effect of addition of third component, 0.5, 1, 3, or 10% based on the molar amount of the Z,Z-3,13-octadecadienyl acetate of Z,E-3,13-ODDA were added into the binary blend individually. Similarly, 0.5, 1, 3, or 10% of E,Z-2,13-ODDA were individually added into a blend consisted of Z,Z-3,13-ODDA:Z, E-3,13-ODDA (94:6) to evaluate the effect of E,Z-2,13-ODDA. In another comparison, 0.5, 1, 2, or 3% E,Z-3,13-ODDA was added to the trinary blend. Dose response tests of the trinary and binary blends were deployed in each location, with doses consisting of 10-μg, 100-μg, 300-μg, 1-mg, and 10-mg (trinary blend); and 10-μg, 100-μg, 300-μg, 500-μg, and 1-mg (binary blend), respectively. Caged live virgin females (2-4 days old and 1 female per cage) were deployed in traps to provide a natural source of pheromone for comparison with traps baited with the binary and trinary blends. In a final comparison to determine over what distance DWB can detect the trinary blend, we compared captures in traps baited with the trinary blend deployed within an infested apple orchard, and 50 and […] outside the orchard within a large wood lot habitat.\nStatistics: The data on control traps were omitted in the analysis because of zero trap catches. Unless otherwise specified, data on trap catches from each test were logarithm transformed (log χ+1) to normalize the variance before analysis. Means were compared by one-way analysis of variance (ANOVA) followed by Ryan-Einot-Gabriel-Welsch Range test (SPSS 10.0 for Windows, George and Mallery, 2002) for significance at α=0.05."}, "dogwood borer (DWB)": {"tested_on": "dogwood borer (DWB)", "assay": "Species-specificity of lures: share of dogwood borer in captures", "format": "in vivo, Synanthedon scitula", "settings": "across all sites; FIG. 10", "experimental": "Field Trapping Tests: Red natural rubber septa (5 mm, Wheaton, N.J.) loaded with the desired rates of Z,Z-3,13-ODDA and the blends in […] of hexane solution were used for field deployment. The same amount of solvent (hexane) was loaded on the septum for the blank control. After loading, the solvent was allowed to evaporate in a fume hood for 30 min. Lures were then wrapped in aluminum foil, stored in 20 ml plastic vials, and shipped by express carrier on the same day. Upon arrival, the lures were kept in a freezer at −10° C. until deployed. All field tests were conducted in commercial apple fields in WV, VA, and NC using Pherocon 1C or Delta sticky traps (Trécé, Salinas, Calif.). Traps were placed in trees at ˜1.2 m above the ground (Riedi, Fla., et al., Cana. Entomol., 117: 1367-1377 (1985)). At each location, experimental lures were randomized within each of three to five rows (depending on the number of replicates per test) and separated by at least one buffer row, and traps were spaced at a minimum of ˜25 m intervals within a row. Traps were rotated among positions within each row at weekly intervals for the duration of each test. The number of dogwood borer, peachtree borer, lilac borer, and other male Sesiidae moths captured were recorded weekly. […]"}}, "note": "Entries after “also recorded” stand apart in the source; their conditions may differ.", "data": [{"compound": "CCCC/C=C/CCCCCCCCC/C=C/COC(C)=O", "note": "[(E,E)-2,13-Octadecadienyl acetate, reference compound]", "values": [{"measurement": "EAD activity in 10 ng of loading", "setting": "adult male DWB antenna", "value": "0.012 (±0.21% SD, n = 3) mV"}]}, {"compound": "CCCC/C=C/CCCCCCCC/C=C/CCOC(C)=O", "note": "[(E,E)-3,13-Octadecadienyl acetate, E,E-3,13-octadecadienyl acetate, reference compound]", "values": [{"measurement": "EAD activity in 10 ng of loading", "setting": "adult male DWB antenna", "value": "0.12 (±3.5% SD, n = 3) mV"}]}, {"compound": "CCCC/C=C\\CCCCCCCCC/C=C/COC(C)=O", "note": "[(E,Z)-2,13-Octadecadienyl acetate, E,Z-2,13-octadecadienyl acetate]", "values": [{"measurement": "effect on attraction of adding the compound to Z,Z-3,13-ODDA:Z,E-3,13-ODDA (94:6) blend", "setting": "[1]; 0.5 to 10% added, FIG. 4", "value": "significantly increased"}, {"measurement": "amount added to 94:6 (Z,Z-3,13-ODDA:Z,E-3,13-ODDA) blend at which captures increased significantly", "setting": "[1]; all locations, FIG. 4", "value": "≤ 1", "unit": "%"}, {"measurement": "EAD activity in 10 ng of loading", "setting": "adult male DWB antenna", "value": "0.13 (±1.2% SD, n = 3) mV"}, {"measurement": "EAD activity / electroantennogram response", "setting": "adult male DWB antenna", "value": "confirmed by synthetic standards"}]}, {"compound": "CCCC/C=C\\CCCCCCCC/C=C/CCOC(C)=O", "note": "[(E,Z)-3,13-Octadecadienyl acetate, E,Z-3,13-octadecadienyl acetate]", "values": [{"measurement": "effect on trap captures of DWB (attraction antagonism)", "setting": "[1]; added to trinary blend, FIG. 5, listed as E,Z-3,13-ODDA", "value": "reduced trap captures of DWB significantly; also recorded: inhibit (antagonize) DWB male response and movement"}, {"measurement": "amount added to trinary blend that significantly inhibited (reduced) trap captures", "setting": "[1]; all locations, FIG. 5, listed as E,Z-3,13-ODDA", "value": "≤ 0.5", "unit": "%"}, {"measurement": "amount added to trinary blend that significantly inhibited (reduced) trap captures", "setting": "[1]; all locations, FIG. 5, listed as E,Z-3 μl 3-ODDA", "value": "0.5-1%"}, {"measurement": "EAD activity in 10 ng of loading", "setting": "adult male DWB antenna", "value": "0.30 (±8.7% SD, n = 3) mV"}, {"measurement": "EAD activity / electroantennogram response", "setting": "adult male DWB antenna", "value": "just as strong an electroantennogram response as Z,Z-3,13-ODDA"}]}, {"compound": "CCCC/C=C/CCCCCCCCC/C=C\\COC(C)=O", "note": "[(Z,E)-2,13-Octadecadienyl acetate, reference compound]", "values": [{"measurement": "EAD activity in 10 ng of loading", "setting": "adult male DWB antenna", "value": "0.030 (±0.10% SD, n = 3) mV"}]}, {"compound": "CCCC/C=C/CCCCCCCC/C=C\\CCOC(C)=O", "note": "[(Z,E)-3,13-Octadecadienyl acetate, Z,E-3,13-octadecadienyl acetate]", "values": [{"measurement": "effect on attraction of adding the compound to the binary blend", "setting": "[1]; 0.5 to 10% added to binary blend (94:6), FIG. 3, listed as Z,E-3,13-ODDA", "value": "did not cause a significant increase in attraction; also recorded: did not observe a similar response"}, {"measurement": "EAD activity in 10 ng of loading", "setting": "adult male DWB antenna", "value": "0.25 (±1.0% SD, n = 3) mV"}]}, {"compound": "CCCC/C=C\\CCCCCCCCC/C=C\\COC(C)=O", "note": "[(Z,Z)-2,13-Octadecadienyl acetate, reference compound]", "values": [{"measurement": "EAD activity in 10 ng of loading", "setting": "adult male DWB antenna", "value": "0.029 (±0.79% SD, n = 3) mV"}]}, {"compound": "CCCC/C=C\\CCCCCCCC/C=C\\CCOC(C)=O", "note": "[(Z,Z)-3,13-Octadecadienyl acetate, Z,Z-3,13-octadecadienyl acetate]", "values": [{"measurement": "percentage of captures that were male dogwood borers", "setting": "dogwood borer (DWB)", "value": "92-99.6%"}, {"measurement": "attraction of male DWB (trap captures), blend comparison", "setting": "[1]; septa containing 1-mg, NC, VA, WV, FIG. 2, listed as Z,Z-3,13-ODDA", "value": "surprisingly attractive; also recorded: reliably attract male DWB"}, {"measurement": "EAD activity in 10 ng of loading", "setting": "adult male DWB antenna", "value": "0.30 (±9.5% SD, n = 3) mV"}, {"measurement": "EAD activity / electroantennogram response", "setting": "adult male DWB antenna", "value": "confirmed by synthetic standards"}]}]}
